Laboratory results from publication PMC2580772, “The dual transcriptional regulator CysR in Corynebacterium glutamicum ATCC 13032 controls a subset of genes of the McbR regulon in response to the availability of sulphide acceptor molecules” (BMC Genomics, 2008).

Target: T1, CysR (Corynebacterium glutamicum, UniProt Q8NU28)
T1 construct: gene Cgl0121; expressed in E. coli ER2566 from pTYB1 (pCR050)
T1 sequence (Q8NU28 1-381): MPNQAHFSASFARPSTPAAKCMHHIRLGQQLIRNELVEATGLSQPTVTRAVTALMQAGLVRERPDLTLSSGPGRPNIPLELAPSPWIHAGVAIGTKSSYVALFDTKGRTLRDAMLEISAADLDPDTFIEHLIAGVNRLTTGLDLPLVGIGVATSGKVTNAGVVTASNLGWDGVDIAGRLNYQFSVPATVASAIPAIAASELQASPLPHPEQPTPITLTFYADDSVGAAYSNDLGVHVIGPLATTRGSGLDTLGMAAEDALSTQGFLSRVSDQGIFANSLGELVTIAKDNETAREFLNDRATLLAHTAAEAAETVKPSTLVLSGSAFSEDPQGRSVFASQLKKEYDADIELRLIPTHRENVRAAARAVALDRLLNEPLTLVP
Experiment: EMSA, effector-dependent DNA binding
Conditions: 10 mM effector; Cy3-labelled 523 bp cysI-fpr2 DNA; 1,000 times molar excess of protein; pH 7.5; room temperature; co-activator

| Compound | EMSA, effector-dependent DNA binding |
| --- | --- |
| CC(=O)OCC[C@H](N)C(=O)O [OAH, O-acetyl-L-homoserine] | CysR can only bind if either OAS or OAH is added to the assay |
| CC(=O)OC[C@H](N)C(=O)O [OAS, O-acetyl-L-serine] | CysR can only bind if either OAS or OAH is added to the assay |
